Marks after values point to notes of the source that are not given here.
Key:
[1] = test system: Puccinia recondita f. sp. tritici; experiment: Test I: wheat leaf rust, preventive spray on wheat seedlings, visual disease rating; conditions: for Test I disease control rating: sprayed the day before inoculation, 0 = no disease control relative to controls; for Test I disease control rating / Test I rating (% disease control): 100 = 100% disease control
Excerpt: (§1) General protocol for preparing test suspensions for Tests A-J: the test compounds were first dissolved in acetone in an amount equal to 3% of the final volume and then suspended at the desired concentration (in ppm) in acetone and purified water (50/50 mix by volume) containing 250 ppm of the surfactant Trem® 014 (polyhydric alcohol esters). The resulting test suspensions were then used in Tests A-J. Spraying a 200 ppm test suspension to the point of run-off on the test plants was the equivalent of a rate of 500 g/ha. Unless otherwise indicated, the rating values indicate a 200 ppm test suspension was used. (An asterisk “*” next to the rating value indicates a 40 ppm test suspension was used.)
The test suspension was sprayed to the point of run-off on wheat seedlings. The following day the seedlings were inoculated with a spore suspension of Puccinia recondita f. sp. tritici (the causal agent of wheat leaf rust) and incubated in a saturated atmosphere at 20° C. for 24 h, and then moved to a growth chamber at 20° C. for 7 days, after which time visual disease ratings were made
A dash (-) indicates no test results.

Septoria tritici = experiment: Test G: wheat leaf blotch, preventive spray on wheat seedlings, visual disease rating; conditions: for Test G disease control rating: sprayed the day before inoculation, 0 = no disease control relative to controls; for Test G disease control rating / Test G rating (% disease control): 100 = 100% disease control
Excerpt: as §1
The test suspension was sprayed to the point of run-off on wheat seedlings. The following day the seedlings were inoculated with a spore suspension of Septoria tritici (the causal agent of wheat leaf blotch) and incubated in saturated atmosphere at 24° C. for 48 h. and then the seedlings were moved to a growth chamber at 20° C. for 19 additional days, after which time visual disease ratings were made.

[2] = test system: Puccinia recondita f. sp. tritici; experiment: Test H: wheat leaf rust, curative spray on inoculated wheat seedlings, visual disease rating; conditions: for Test H disease control rating: sprayed after inoculation, 0 = no disease control relative to controls; for Test H disease control rating / Test H rating (% disease control): 100 = 100% disease control
Septoria nodorum = experiment: Test F: Septoria glume blotch, preventive spray on wheat seedlings, visual disease rating; conditions: for Test F disease control rating / Test F rating (% disease control): 100 = 100% disease control; for Test F disease control rating: 0 = no disease control relative to controls
[3] = test system: Erysiphe graminis f sp. tritici; experiment: Test J: wheat powdery mildew, preventive spray on wheat seedlings, visual disease rating; conditions: for Test J disease control rating: sprayed the day before inoculation, 0 = no disease control relative to controls; for Test J disease control rating / Test J rating (% disease control): 100 = 100% disease control
Botrytis cinerea = experiment: Test B: tomato Botrytis, preventive spray on tomato seedlings, visual disease rating; conditions: for Test B disease control rating / Test B rating (% disease control): 100 = 100% disease control; for Test B disease control rating: 0 = no disease control relative to controls
Alternaria solani = experiment: Test C: tomato early blight, preventive spray on tomato seedlings, visual disease rating; conditions: for Test C disease control rating / Test C rating (% disease control): 100 = 100% disease control; for Test C disease control rating: 0 = no disease control relative to controls
[4] = wheat leaf rust, preventive, 0 = no control relative to controls
[5] = wheat leaf blotch, 0 = no control relative to controls
[6] = wheat leaf rust, curative, 0 = no control relative to controls
[7] = Septoria glume blotch, 0 = no control relative to controls
[8] = wheat powdery mildew, 0 = no control relative to controls
[9] = tomato Botrytis, 0 = no control relative to controls
[10] = tomato early blight, 0 = no control relative to controls
[11] = wheat leaf rust, preventive spray, 0 = no control
[12] = wheat leaf blotch, preventive spray, 0 = no control
[13] = wheat leaf rust, curative spray, 0 = no control
[14] = Septoria glume blotch on wheat, preventive spray, 0 = no control
[15] = wheat powdery mildew, preventive spray, 0 = no control
[16] = tomato Botrytis, preventive spray, 0 = no control
[17] = tomato early blight, preventive spray, 0 = no control

## Cc1nn(C)c(Oc2c(F)cc(C#N)cc2F)c1-c1cc(F)ccc1F [compound 329]
[1]; wheat leaf rust
  Test I disease control rating: 100%
Septoria tritici; wheat leaf blotch
  Test G disease control rating: 100%
[2]; wheat leaf rust
  Test H disease control rating: 0%
Septoria nodorum; Septoria glume blotch on wheat
  Test F disease control rating: 69%
[3]; wheat powdery mildew
  Test J disease control rating: 100%
Botrytis cinerea; tomato Botrytis
  Test B disease control rating: 100%
Alternaria solani; tomato early blight
  Test C disease control rating: 99%

## Cc1nn(C)c(Nc2c(F)cc(F)cc2F)c1-c1c(F)cccc1Cl [compound 191]
[1]; [4]
  Test I rating (% disease control): 97%
Septoria tritici; [5]
  Test G rating (% disease control): 100%
[2]; [6]
  Test H rating (% disease control): 0%
Septoria nodorum; [7]
  Test F rating (% disease control): 0%
[3]; [8]
  Test J rating (% disease control): 99%
Botrytis cinerea; [9]
  Test B rating (% disease control): 98%
Alternaria solani; [10]
  Test C rating (% disease control): 100%

## Cc1nn(C)c(Nc2c(F)cc(F)cc2F)c1-c1ccc(Cl)cc1 [compound 28]
[1]; [11]
  Test I rating (% disease control): 91%
Septoria tritici; [12]
  Test G rating (% disease control): 96%
[2]; [13]
  Test H rating (% disease control): 7%
Septoria nodorum; [14]
  Test F rating (% disease control): 0%
[3]; [15]
  Test J rating (% disease control): 0%
Botrytis cinerea; [16]
  Test B rating (% disease control): 99%
Alternaria solani; [17]
  Test C rating (% disease control): 0%

## COc1cc(F)c(Nc2c(-c3c(F)cc(F)cc3F)c(C)nn2C)c(F)c1 [compound 78]
[1]; [11]
  Test I rating (% disease control): 89%
Septoria tritici; [12]
  Test G rating (% disease control): 98%
[2]; [13]
  Test H rating (% disease control): 0%
Septoria nodorum; [14]
  Test F rating (% disease control): 0%
[3]; [15]
  Test J rating (% disease control): 91%
Botrytis cinerea; [16]
  Test B rating (% disease control): 99%
Alternaria solani; [17]
  Test C rating (% disease control): 82%

## COc1cc(F)c(Nc2c(-c3ccc(C)cc3)c(C)nn2C)c(F)c1 [compound 80]
[1]; [11]
  Test I rating (% disease control): 86%
Septoria tritici; [12]
  Test G rating (% disease control): 99%
[2]; [13]
  Test H rating (% disease control): 18%
Septoria nodorum; [14]
  Test F rating (% disease control): 0%
[3]; [15]
  Test J rating (% disease control): 89%
Botrytis cinerea; [16]
  Test B rating (% disease control): 100%
Alternaria solani; [17]
  Test C rating (% disease control): 0%

## Cc1nn(C)c(Nc2ccc(F)cc2F)c1-c1cccc(Cl)c1Cl [compound 302]
[1]; wheat leaf rust, preventive, rating marked with asterisk (*), meaning not given
  Test I rating (% disease control), marked *: 18* %
Septoria tritici; wheat leaf blotch, rating marked with asterisk (*), meaning not given
  Test G rating (% disease control), marked *: 99* %
[2]; wheat leaf rust, curative, rating marked with asterisk (*), meaning not given
  Test H rating (% disease control), marked *: 0* %
Septoria nodorum; Septoria glume blotch, rating marked with asterisk (*), meaning not given
  Test F rating (% disease control), marked *: 0* %
[3]; wheat powdery mildew, rating marked with asterisk (*), meaning not given
  Test J rating (% disease control), marked *: 97* %
Botrytis cinerea; tomato Botrytis, rating marked with asterisk (*), meaning not given
  Test B rating (% disease control), marked *: 99* %
Alternaria solani; tomato early blight, rating marked with asterisk (*), meaning not given
  Test C rating (% disease control), marked *: 0* %

## COc1cc(F)c(-c2c(C)nn(C)c2Oc2cccc(C)c2)c(F)c1 [compound 220]
[1]; [4]
  Test I rating (% disease control): 99%
Septoria tritici; [5]
  Test G rating (% disease control): 98%
[2]; [6]
  Test H rating (% disease control): 40%
Septoria nodorum; [7]
  Test F rating (% disease control): 40%
[3]; [8]
  Test J rating (% disease control): 100%
Botrytis cinerea; [9]
  Test B rating (% disease control): 98%
Alternaria solani; [10]
  Test C rating (% disease control): 97%

## COc1cc(F)c(-c2c(C)nn(C)c2Oc2c(F)cc(Cl)cc2F)c(F)c1 [Compound 58, 5-(4-Chloro-2,6-difluorophenoxy)-4-(2,6-difluoro-4-methoxyphenyl)-1,3-dimethyl-1H-pyrazole]
[1]; 192 h, read-out: Test I rating (% disease control)
  pest or weed control at 200 µg/mL: 100%
Septoria tritici; Zymoseptoria tritici, in Triticum aestivum, 504 h, read-out: Test G rating (% disease control)
  pest or weed control at 200 µg/mL: 98%
[2]; 144 h, read-out: Test H rating (% disease control)
  pest or weed control at 200 µg/mL: 82%
Septoria nodorum; Parastagonospora nodorum, in Triticum aestivum, 192 h, read-out: Test F rating (% disease control)
  pest or weed control at 200 µg/mL: 89%
[3]; Blumeria graminis, in Triticum aestivum, 192 h, read-out: Test J rating (% disease control)
  pest or weed control at 200 µg/mL: 100%
Botrytis cinerea; Botrytis cinerea, in Solanum lycopersicum, 120 h, read-out: Test B rating (% disease control)
  pest or weed control at 200 µg/mL: 98%
Alternaria solani; Alternaria solani, in Solanum lycopersicum, 168 h, read-out: Test C rating (% disease control)
  pest or weed control at 200 µg/mL: 100%

## Cc1nn(C)c(Oc2cc(F)c(C#N)cc2F)c1-c1ccc(F)cc1Br [compound 233]
[1]; [4]
  Test I rating (% disease control): 100%
Septoria tritici; [5]
  Test G rating (% disease control): 100%
[2]; [6]
  Test H rating (% disease control): 0%
Septoria nodorum; [7]
  Test F rating (% disease control): 99%
[3]; [8]
  Test J rating (% disease control): 100%
Botrytis cinerea; [9]
  Test B rating (% disease control): 100%
Alternaria solani; [10]
  Test C rating (% disease control): 99%

## COc1cc(F)c(-c2c(C)nn(C)c2Oc2ccc(Cl)c(OC)c2)c(F)c1 [compound 211]
[1]; [4]
  Test I rating (% disease control): 17%
Septoria tritici; [5]
  Test G rating (% disease control): 99%
[2]; [6]
  Test H rating (% disease control): 0%
Septoria nodorum; [7]
  Test F rating (% disease control): 0%
[3]; [8]
  Test J rating (% disease control): 96%
Botrytis cinerea; [9]
  Test B rating (% disease control): 77%
Alternaria solani; [10]
  Test C rating (% disease control): 0%

## Cc1nn(C)c(Oc2ccc([N+](=O)[O-])c(F)c2)c1-c1c(F)cc(F)cc1F [compound 131]
[1]; [11]
  Test I rating (% disease control): 86%
Septoria tritici; [12]
  Test G rating (% disease control): 98%
[2]; [13]
  Test H rating (% disease control): 0%
Septoria nodorum; [14]
  Test F rating (% disease control): 0%
[3]; [15]
  Test J rating (% disease control): 94%
Botrytis cinerea; [16]
  Test B rating (% disease control): 99%
Alternaria solani; [17]
  Test C rating (% disease control): 0%

## Cc1nn(C)c(Oc2ccc(C#N)cc2Cl)c1-c1ccc(Cl)cc1Cl [compound 362]
[1]; wheat leaf rust
  Test I disease control rating: 96%
Septoria tritici; wheat leaf blotch
  Test G disease control rating: 100%
[2]; wheat leaf rust
  Test H disease control rating: 0%
Septoria nodorum; Septoria glume blotch on wheat
  Test F disease control rating: 0%
[3]; wheat powdery mildew
  Test J disease control rating: 96%
Botrytis cinerea; tomato Botrytis
  Test B disease control rating: 100%
Alternaria solani; tomato early blight
  Test C disease control rating: 0%

## Cc1nn(C)c(Nc2ccc(F)cc2F)c1-c1c(Cl)cccc1Cl [compound 339]
[1]; wheat leaf rust
  Test I disease control rating: 98%
Septoria tritici; wheat leaf blotch
  Test G disease control rating: 100%
[2]; wheat leaf rust
  Test H disease control rating: 0%
Septoria nodorum; Septoria glume blotch on wheat
  Test F disease control rating: 0%
[3]; wheat powdery mildew
  Test J disease control rating: 100%
Botrytis cinerea; tomato Botrytis
  Test B disease control rating: 100%
Alternaria solani; tomato early blight
  Test C disease control rating: 0%

## Cc1nn(C)c(Nc2ccc(Cl)nc2Cl)c1-c1ccc(F)cc1Cl [compound 107]
[1]; wheat leaf rust, preventive spray, rating marked with asterisk (different test condition, key not given)
  Test I rating (% disease control), value marked *: 24* %
Septoria tritici; wheat leaf blotch, preventive spray, rating marked with asterisk (different test condition, key not given)
  Test G rating (% disease control), value marked *: 99* %
[2]; wheat leaf rust, curative spray, rating marked with asterisk (different test condition, key not given)
  Test H rating (% disease control), value marked *: 8* %
Septoria nodorum; Septoria glume blotch, preventive spray, rating marked with asterisk (different test condition, key not given)
  Test F rating (% disease control), value marked *: 0* %
[3]; wheat powdery mildew, preventive spray, rating marked with asterisk (different test condition, key not given)
  Test J rating (% disease control), value marked *: 0* %
Botrytis cinerea; tomato Botrytis, preventive spray, rating marked with asterisk (different test condition, key not given)
  Test B rating (% disease control), value marked *: 99* %
Alternaria solani; tomato early blight, preventive spray, rating marked with asterisk (different test condition, key not given)
  Test C rating (% disease control), value marked *: 0* %

## COc1ccc(-c2c(C)nn(C)c2Oc2ccc(C#N)cc2Cl)c(Br)c1 [compound 318]
[1]; wheat leaf rust
  Test I disease control rating: 97%
Septoria tritici; wheat leaf blotch
  Test G disease control rating: 100%
[2]; wheat leaf rust
  Test H disease control rating: 0%
Septoria nodorum; Septoria glume blotch on wheat
  Test F disease control rating: 0%
[3]; wheat powdery mildew
  Test J disease control rating: 89%
Botrytis cinerea; tomato Botrytis
  Test B disease control rating: 99%
Alternaria solani; tomato early blight
  Test C disease control rating: 0%

## Cc1nn(C)c(Nc2ccc(F)c(Cl)c2)c1-c1c(F)cc(C#N)cc1F [compound 144]
[1]; [11]
  Test I rating (% disease control): 98%
Septoria tritici; [12]
  Test G rating (% disease control): 99%
[2]; [13]
  Test H rating (% disease control): 0%
Septoria nodorum; [14]
  Test F rating (% disease control): 40%
[3]; [15]
  Test J rating (% disease control): 91%
Botrytis cinerea; [16]
  Test B rating (% disease control): 99%
Alternaria solani; [17]
  Test C rating (% disease control): 9%

## Cc1nn(C)c(Oc2c(F)cc(C#N)cc2F)c1-c1cc(Cl)ccc1Cl [compound 275]
[1]; [4]
  Test I rating (% disease control): 97%
Septoria tritici; [5]
  Test G rating (% disease control): 99%
[2]; [6]
  Test H rating (% disease control): 8%
Septoria nodorum; [7]
  Test F rating (% disease control): 0%
[3]; [8]
  Test J rating (% disease control): 99%
Botrytis cinerea; [9]
  Test B rating (% disease control): 97%
Alternaria solani; [10]
  Test C rating (% disease control): 46%

## Cc1nn(C)c(Nc2cnc(Cl)nc2)c1-c1ccc(F)cc1Cl [compound 268]
[1]; [4]
  Test I rating (% disease control): 74%
Septoria tritici; [5]
  Test G rating (% disease control): 99%
[2]; [6]
  Test H rating (% disease control): 0%
Septoria nodorum; [7]
  Test F rating (% disease control): 0%
[3]; [8]
  Test J rating (% disease control): 0%
Botrytis cinerea; [9]
  Test B rating (% disease control): 95%
Alternaria solani; [10]
  Test C rating (% disease control): 93%

## Cc1nn(C)c(Nc2c(F)cc(C#N)cc2F)c1-c1c(F)cccc1F [compound 301]
[1]; [4]
  Test I rating (% disease control): 98%
Septoria tritici; [5]
  Test G rating (% disease control): 100%
[2]; [6]
  Test H rating (% disease control): 0%
Septoria nodorum; [7]
  Test F rating (% disease control): 87%
[3]; [8]
  Test J rating (% disease control): 99%
Botrytis cinerea; [9]
  Test B rating (% disease control): 99%
Alternaria solani; [10]
  Test C rating (% disease control): 87%

From patent US10448639B2, “Fungicidal pyrazoles” (FMC CORPORATION, priority 2009, dated 2019)
